Test results from patent US20170027949A1, “ASSOCIATION BETWEEN 8-CYCLOPROPYL-3-[2-(3-FLUOROPHENYL)ETHYL]-7,8-DIHYDRO-3H-[1,3]OXAZINO[6,5-g][1,2,3]BENZOTRIAZINE-4,9-DIONE AND AN ACETYLCHOLINESTERASE INHIBITOR, AND PHARMACEUTICAL COMPOSITIONS CONTAINING IT” (priority 2014, published 2017).

Columns and labels:
[1] = test system: C57BL/6 mice having an average age of 14-15 months; assay: Contextual serial discrimination test (model of episodic memory); type: in vivo; details: for percentage of correct responses: chronic treatment for 9 days, middle-aged mice, carrier 26.4%
Description: The effects of 8-cyclopropyl-3-[2-(3-fluorophenyl)ethyl]-7,8-dihydro-3H-[1,3]oxazino-[6,5-g][1,2,3]benzotriazine-4,9-dione and of donepezil (the latter used in the form of a hydrochloride), administered on their own or in combination, were studied using a contextual serial discrimination test in C57BL/6 mice having an average age of 14-15 months (n=12 per group) (Célérier et al., Learn Mem. 2004, 11(2), 196-204; Tronche et al., Behav. Brain Res. 2010, 215(2), 255-260).
The mice, placed in a high-sided box, learn two types of consecutive spatial discriminations (D1: white floor then D2: black floor) on a floor having four holes, in which only one of the holes is baited, opposite holes being baited in D1 and D2. Each discrimination is performed on a specific floor (white or black), which constitutes the internal context specific to each discrimination. Twenty-four hours after the learning step, the mice are returned to the white contextual floor and the following parameters are measured: • the percentage of correct responses (i.e. % of head dips in the hole that had been baited during the acquisition exercise on the white floor), • the percentage of interfering responses (i.e. % of head dips in the hole that had been baited during the acquisition exercise on the black floor, the last context presented to the mice), • and the percentage of errors (i.e. % of head dips in the two holes that had not been baited during the acquisition, either on the white floor or on the black floor) (see FIG. 1).

[2] = test system: 3-month-old C57BL/6 mice; assay: Excitatory post-synaptic potentials (EPSP) induced by electrical stimulation in alert mice (perforant pathway / dentate gyrus of the hippocampus); type: in vivo; details: single dose p.o.: Compound S 3 mg/kg, rivastigmine 0.03 mg/kg, alone or in association
Description: Studying EPSPs induced by electrical stimulation in alert mice makes it possible to study physiologically an electrophysiological phenomenon which is the basis of neuronal activity and connected to the processes of memorisation and learning.
3-month-old C57BL/6 mice are anaesthetised with 0.8-3% halothane delivered by means of a mask. Once anaesthetised, stimulation and recording electrodes are inserted, respectively, in the perforant pathway and the dentate gyrus of the hippocampus of the animals. Following implantation of the electrodes, the mice are kept in cages for from 5 to 7 days with free access to food and water in order to allow complete recovery. Each implanted animal is alone in a cage until the end of the experiment.
After recovery, a stable baseline of evoked responses is induced using paired pulses (pulse duration 100 μs, negative-positive) administered at 3 pulses/minute to the stimulation electrode situated in the perforant pathway. The intervals between pulses are fixed at 40 ms (Gruart et al., J. Neurosci. 2006, 24, 1077-1087). The field EPSPs are monitored until a stable baseline is obtained (for 30 minutes). The products or the carrier are then administered, and the evoked field potentials are recorded. […] The evoked potentials are then recorded for approximately 2.5 hours after the last administration of compound or carrier.

[3] = test system: C57BL/6 mice; assay: Irwin's primary observation test; details: on its own
Description: The effects in terms of safety of 8-cyclopropyl-3-[2-(3-fluorophenyl)ethyl]-7,8-dihydro-3H-[1,3]oxazino[6,5-g][1,2,3]benzotriazine-4,9-dione and of donepezil (the latter in the form of a hydrochloride), administered on their own or in association, were studied using Irwin's primary observation test in C57BL/6 mice (n=4 individuals per group). Behavioural changes, physiological and neurotoxic symptoms, rectal temperature and also pupil diameter were recorded using a standardised observation grid derived from that of Irwin.

Row | SMILES | percentage of correct responses ([1]; 0.1 mg/kg per os) [%] | percentage of correct responses ([1]; 0.3 mg/kg per os) [%] | increase in level of correct responses relative to the carrier ([1]; doses of 0.1 and 0.3 mg/kg per os, 9 days, significant) | amplitudes of the field EPSPs relative to the carrier group [2] | change in percentage of correct responses relative to the carrier ([1]; 0.1 mg/kg of base per os, 9 days) | change according to the standardised observation grid ([3]; 0.3 and 1 mg/kg of base per os, acute) | change according to the standardised observation grid ([3]; 3 and 10 mg/kg of base per os)
1 | O=C1c2cc3nnn(CCc4cccc(F)c4)c(=O)c3cc2OCN1C1CC1 [Compound S, 8-cyclopropyl-3-[2-(3-fluorophenyl)ethyl]-7,8-dihydro-3H-[1,3]oxazino[6,5-g][1,2,3]benzotriazine-4,9-dione] | 43.7 | 48 | more than 40% | does not induce a significant modification | – | – | –
2 | COc1cc2c(cc1OC)C(=O)C(CC1CCN(Cc3ccccc3)CC1)C2 (stereo not drawn) [donepezil] | 35.5 | – | – | – | slight non-significant increase | do not induce any change | induces shaking, slight to moderate sedation, a loss of muscle tone and a decrease in reactivity to touch
3 | CCN(C)C(=O)Oc1cccc([C@H](C)N(C)C)c1 [rivastigmine] | – | – | – | does not induce a significant modification | – | – | –
